Assay results: US9765294B2 (priority 2013, dated 2017)
Like-named read-outs stand apart in the source and are kept apart here.

How the values were obtained:
Bordetella pertussis = assay type: cell-based
B. pertussis [1] = assay type: cell-based, Bordetella pertussis; conditions: for Growth: 53 h; for Biomass yield after 53 h: sole sulfur source, 35° C.; for Support of growth as the sole source of sulfur: medium containing no other S source
B. pertussis [2] = assay: Growth in minimal media containing only one amino acid, shake-flasks; assay type: cell-based, Bordetella pertussis; conditions: L-cysteine 125 mM as single amino acid, no thiosulfate added
Protocol: Assays were performed in order to determine whether growth of B. pertussis is possible in minimal media containing a single amino acid as the sole source of carbon and nitrogen. A shake-flask containing 7.5 ml fresh medium (B-CDM containing 0.604 g/L niacin) was inoculated with 10^9 B. pertussis CFUs and incubated at 35° C. (+/−1° C.) and 150 rpm for 24 h (+/−5 h). Cells were harvested by centrifugation, washed twice with NaCl 0.9% (w/v), and resuspended in fresh medium (see composition in Table 12) at a theoretical OD650 nm of 0.5, as calculated from the OD650 nm of the culture before harvest. 1 ml of this cell suspension was used to inoculate shake-flasks containing 30 ml of the medium in Table 12, supplemented with a single amino acid (L-cysteine 125 mM, L-proline 125 mM, L-glutamate 125 mM, L-glutamine 125 mM, L-aspartate 30 mM, L-asparagine 125 mM, L-serine 125 mM, or L-alanine 125 mM) as a source of C and N, and thiosulfate 0.25 mM as a source of S (except for L-Cys supplementation, where no thiosulfate was added). The same medium with ammonium chloride (25 mM) and thiosulfate (0.25 mM), but no amino acid, was used as a negative control. The shake flasks were then incubated for approximately 10 days at 35° C. under constant shaking (150 rpm). Growth was monitored as OD650 nm.

B. pertussis [3] = assay type: cell-based, Bordetella pertussis
[4] = buffer 2.5 g/L, relative to Tris control
[5] = buffer 5.0 g/L, relative to Tris control
[6] = buffer 10.0 g/L, relative to Tris control
[7] = buffer 20.0 g/L, relative to Tris control
[8] = buffer 6.1 g/L, control conditions

[Cl][Cu][Cl] [CuCl2]
Biomass yield (Bordetella pertussis): significant increase

N[C@@H](CS)C(=O)O [L-cysteine]
Growth (B. pertussis [1]; 27 mM in medium): +
Biomass yield after 53 h (B. pertussis [1]; 27 mM in medium): 0.512 OD650nm
Need for an additional source of sulfur (B. pertussis [2]): no additional source of sulfur was required

O=S(=O)(O)CCCN1CCOCC1 [MOPS, 3-(N-morpholino)propanesulfonic acid]
Support of growth as buffer in B-CDM (B. pertussis [3]): able to support growth
Relative biomass yield after 24 h (B. pertussis [3]; [4]): 114%
Relative biomass yield after 48 h (B. pertussis [3]; [4]): 91%
Relative biomass yield after 24 h (B. pertussis [3]; [5]): 85%
Relative biomass yield after 48 h (B. pertussis [3]; [5]): 88%
Relative biomass yield after 24 h (B. pertussis [3]; [6]): 111%
Relative biomass yield after 48 h (B. pertussis [3]; [6]): 84%
Relative biomass yield after 24 h (B. pertussis [3]; [7]): 81%
Relative biomass yield after 48 h (B. pertussis [3]; [7]): 76%

O=S(=O)([O-])[O-].[Na+].[Na+] [disodium sulfate]
Growth (B. pertussis [1]; 12 mM in medium): −
Biomass yield after 53 h (B. pertussis [1]; 12 mM in medium): 0.015 OD650nm
Support of growth as the sole source of sulfur (B. pertussis [1]): not able to support growth

O=S([O-])[O-].[Na+].[Na+] [disodium sulfite]
Growth (B. pertussis [1]; 1 mM in medium): −
Biomass yield after 53 h (B. pertussis [1]; 1 mM in medium): 0.011 OD650nm
Biomass yield after 53 h (B. pertussis [1]; 12 mM in medium): 0.007 OD650nm
Support of growth as the sole source of sulfur (B. pertussis [1]): not able to support growth

O=S(O)(O)=S [disodium thiosulfate]
Growth (B. pertussis [1]; 1 mM in medium): +
Biomass yield after 53 h (B. pertussis [1]; 1 mM in medium): 0.227 OD650nm
Growth (B. pertussis [1]; 12 mM in medium): +
Biomass yield after 53 h (B. pertussis [1]; 12 mM in medium): 0.472 OD650nm
Support of growth as the sole source of sulfur (B. pertussis [1]): growth was observed

O=P(O)(O)OC(CO)CO [β-glycerophosphate]
Support of growth as buffer in B-CDM (B. pertussis [3]): able to support growth
Relative biomass yield after 24 h (B. pertussis [3]; [4]): 88%
Relative biomass yield after 48 h (B. pertussis [3]; [4]): 79%
Relative biomass yield after 24 h (B. pertussis [3]; [5]): 89%
Relative biomass yield after 48 h (B. pertussis [3]; [5]): 67%
Relative biomass yield after 24 h (B. pertussis [3]; [6]): 68%
Relative biomass yield after 48 h (B. pertussis [3]; [6]): 59%
Relative biomass yield after 24 h (B. pertussis [3]; [7]): 46%
Relative biomass yield after 48 h (B. pertussis [3]; [7]): 45%

tris(hydroxymethyl)aminomethane
Relative biomass yield after 24 h (B. pertussis [3]; [8]): 100%
Relative biomass yield after 48 h (B. pertussis [3]; [8]): 100%
